Reference: ChEMBL document CHEMBL1146012, “5-benzylidene-hydantoins as new EGFR inhibitors with antiproliferative activity” (Bioorg Med Chem Lett, 2006)
pIC50: −log10 of the molar value.

Target: Epidermal growth factor receptor (Homo sapiens, UniProt P00533)
Test: Inhibition of EGFR-mediated polyGAT phosphorylation at 10 uM

Chain of Epidermal growth factor receptor (P00533 whole entry): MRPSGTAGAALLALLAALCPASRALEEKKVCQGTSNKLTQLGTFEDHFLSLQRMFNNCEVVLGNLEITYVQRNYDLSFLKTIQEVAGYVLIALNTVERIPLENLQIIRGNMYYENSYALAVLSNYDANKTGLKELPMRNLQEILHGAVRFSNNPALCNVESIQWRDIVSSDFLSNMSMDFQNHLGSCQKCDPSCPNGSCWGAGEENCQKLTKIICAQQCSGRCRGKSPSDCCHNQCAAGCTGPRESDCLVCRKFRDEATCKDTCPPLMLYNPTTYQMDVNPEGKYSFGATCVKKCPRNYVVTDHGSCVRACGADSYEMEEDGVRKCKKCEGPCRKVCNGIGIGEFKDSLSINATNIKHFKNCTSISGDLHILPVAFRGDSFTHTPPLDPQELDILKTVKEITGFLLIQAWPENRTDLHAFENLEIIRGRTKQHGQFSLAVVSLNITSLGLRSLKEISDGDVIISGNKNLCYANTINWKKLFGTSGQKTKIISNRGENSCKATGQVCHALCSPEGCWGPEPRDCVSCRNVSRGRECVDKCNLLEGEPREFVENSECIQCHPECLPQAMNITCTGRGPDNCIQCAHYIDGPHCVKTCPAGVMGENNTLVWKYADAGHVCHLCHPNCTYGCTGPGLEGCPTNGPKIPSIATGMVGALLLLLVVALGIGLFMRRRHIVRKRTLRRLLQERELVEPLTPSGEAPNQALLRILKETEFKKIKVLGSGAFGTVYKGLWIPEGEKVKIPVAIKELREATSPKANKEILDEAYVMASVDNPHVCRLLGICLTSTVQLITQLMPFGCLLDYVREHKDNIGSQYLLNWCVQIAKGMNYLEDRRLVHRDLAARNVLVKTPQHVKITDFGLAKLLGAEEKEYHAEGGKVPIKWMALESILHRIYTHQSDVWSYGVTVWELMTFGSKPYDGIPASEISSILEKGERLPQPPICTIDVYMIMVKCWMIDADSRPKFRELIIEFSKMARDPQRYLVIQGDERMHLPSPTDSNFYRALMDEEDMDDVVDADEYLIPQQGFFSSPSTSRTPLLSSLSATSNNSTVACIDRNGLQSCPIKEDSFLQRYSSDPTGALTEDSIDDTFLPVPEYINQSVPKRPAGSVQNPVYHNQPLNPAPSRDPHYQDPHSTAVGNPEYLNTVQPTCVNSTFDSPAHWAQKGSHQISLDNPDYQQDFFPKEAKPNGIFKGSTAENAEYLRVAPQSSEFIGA

Structure (SMILES): O=C1NC(=O)N(CCc2ccccc2)/C1=C/c1ccc(O)cc1
- pIC50: 6.15
